Measurements from patent US9901611B2 (Molecular Defenses Corporation, priority 2015, dated 2018).
Read-outs that look alike come from different tables or passages of the source.

Assays:
[1] = system: high-affinity component of mitochondrial GSH transport; conditions: stimulated by ATP; cited from earlier work
[2] = 1,200 mg/day i.v., compared to baseline; cited from earlier work
[3] = cited from earlier work
[4] = rat, i.v. bolus, cited from earlier work
HIV-1 = conditions: in vitro, cited from earlier work
HIV = conditions: U1 cells, in the absence of cytotoxic or cytostatic effects; cited from earlier work
[5] = far advanced AIDS
Text: A clinical study on far advanced AIDS patients who had exhausted the HAART combinations and averaged 300,000 copies (HIV RNA PCR) and 50 CD4+ cells/per cubic mm.

[6] = human, in vivo, iv; cited from earlier work
[7] = Phase I/II clinical trial of oral GSH in HIV positive patients, PBMC intracellular GSH; assay type: in vivo, human
Text: Early clinical trials determined the pharmacokinetics of absorption and intracellular distribution in Peripheral Blood Mononuclear Cells in asymptomatic HIV (+) patients, using three doses of 1 gm, 2 gms and 3 gms/day over a 4 week period, with two weeks of baselines, plus two weeks of post drug exposure.

[8] = 5 g oral per day, two female patients who survived 1 year; cited from earlier work
[9] = infusion 10 mg/min for 120 min, cited from earlier work
[10] = in vivo, po; for share absorbed and intracellular: 1.5 hours
Text: It would be possible to follow the two groups and to compare the rates of progression to determine statistically significant differences.

[11] = mouse, GSH pretreatment; cited from earlier work
microglial cells = conditions: microglia, NO and superoxide generated simultaneously; cited from earlier work
[12] = system: mouse cytotoxic T-lymphocytes; conditions: i.p. injection on the third day post immunization; cited from earlier work
HIV-1 LTR = conditions: Jurkat cells, synergistic induction by TNFα and Tat; cited from earlier work
[13] = rats, LPS; cited from earlier work
[14] = high end of dose range 50-300 mmol/kg
[15] = low end of dose range 50-300 mmol/kg
[16] = asymptomatic HIV (+) patients, 1, 2 and 3 gms/day

Molecule: N[C@@H](CCC(=O)N[C@@H](CS)C(=O)NCC(=O)O)C(=O)O [GSH, gamma-glutamyl-cysteinyl-glycine]
- Km [1]: ~60 µM
- V max [1]: approximately 0.5 nM/min per mg of protein
- hematologic parameters (hematocrit, hemoglobin, blood count) [2]: significantly increase
- systolic and diastolic blood pressure ([3]; 1,844 mg i.v. bolus, hypertensive patients and non-hypertensive diabetics, within ten minutes): rapid and significant decrease
- blood pressure values ([3]; 3,699 mg dose, normal subjects): significant decrease
- apparent volume of distribution [4, 14]: 1.33 L/kg
- half-life of the elimination phase [4, 14]: 11.4 min
- rate constant for drug elimination and plasma clearance [4, 14]: 2.44 mL/min
- apparent volume of distribution [4, 15]: 3.78 L/kg
- half-life of the elimination phase [4, 15]: 52.4 min
- rate constant for drug elimination and plasma clearance [4, 15]: 0.84 mL/min
- duration of suppression of HIV production (HIV-1; intracellular GSH in infected monocytes raised to the high end of the normal range): about 35 days
- HIV-1 p24 antigen levels and reverse transcriptase activity (HIV-1; single pulse exposure): sustained, concentration-dependent decrease
- induction of HIV expression mediated by PMA, TNF-α or IL-6 (HIV): suppressed in a dose-dependent fashion
- survival after starting on GSH ([5]; 75 mg/kg in two divided doses, four patients who followed the regimen): 3 years
- CD4+ cell counts ([5]; four patients): did not restore their CD4+ cell counts to any extent
- half-life [6]: 14.1 ± 9.2 min
- relation of dose to PBMC GSH ([7]; 1 gm, 2 gms and 3 gms/day): dose response relationship
- completion of absorption and distribution within the PBMC [7, 16]: 60 min
- start of absorption and distribution within the PBMC after ingestion [7, 16]: 30 min
- toxicities ([7]; asymptomatic HIV (+) patients, 4 week period): no evidence of toxicities
- tumor growth [8]: regression or stagnation of their tumor growth
- insulin clearance and action [9]: No effect was seen
- glucose-induced insulin secretion ([9]; patients with IGT): significantly potentiated
- share absorbed and intracellular ([10]; human): 70-80%
- toxicities [10]: no significant toxicities
- share absorbed and intracellular [10]: 80%
- morphine-induced lethality [11]: protects against morphine-induced lethality
- peroxynitrite formation (microglial cells): significantly decreased
- augmentation of cytotoxic activity [12]: 5 fold

Molecule: N/C(=N\O)c1cc(O)c(O)c(O)c1 [TD, Trimidox]
- HIV-1 LTR-mediated gene expression (HIV-1 LTR): significantly suppressed

Molecule: GSH ester [GSE]
- induction of HIV expression mediated by PMA, TNF-α or IL-6 (HIV): suppressed in a dose-dependent fashion

Molecule: CC(=O)N[C@@H](CS)C(=O)O [NAC, N-acetyl-L-cysteine]
- induction of HIV expression mediated by PMA, TNF-α or IL-6 (HIV): suppressed in a dose-dependent fashion
- HIV-1 LTR-mediated gene expression (HIV-1 LTR): significantly suppressed
- decrease of lung lavage neutrophil count [13]: six fold
